34 molecules from US4060527A, “Pyrido[2,3-c]-acridine-1-hydroxy-2-carboxylic acid derivatives” (Fuji Chemical Industries, Ltd., priority 1975, dated 1977) can be followed below.

Structures are written as SMILES. Converted amounts (≈) assume the structure as drawn. Where two headings read alike, the source gives them in different places. Some results are limits rather than exact numbers.

Data set [1] in a line: Acute toxicity LD50 on mouse. The note with it: in vivo.
Data set [2] can be described thus: in vivo. The note with it: mouse.
In data set [3] the test system is Escherichia coli. Briefly: Antibacterial activity (MIC) against Escherichia coli as Gram-negative bacterium. Type of data set: cell-based. The note with it: for MBC: Table 1, bacteriocidal, read-out: Escherichia coli bacteriocidal action; for MIC: Table 1, bacteriostatic, read-out: Escherichia coli bacteriostatic action (MIC).
In data set [4] the test system is Staphylococcus aureus. Briefly: Antibacterial activity (MIC) against Staphylococcus aureus as Gram-positive bacterium. The data set is classed as cell-based. The note with it: Table 3, class symbols; for MIC: Staphylococcus aureus, read-out: Antibacterial Activity (MIC) Staph. aureus. As for the experimental part:
(§1) Some of the compounds of this invention were tested as to their antibacterial activity (MIC, mcg/ml) against Staph. aureus as Gram-positive bacterium and E. coli as Gram-negative bacterium. In the table, the antibacterial activity of 0.09 to 1.25 mcg/ml. is indicated as A1, and the antibacterial activity of more than 1.25 mcg/ml. and not more than 2.5 mcg/ml. is indicated as A2.

In data set [5] the test system is Escherichia coli. Briefly: Antibacterial activity (MIC) against Escherichia coli as Gram-negative bacterium. Type of data set: cell-based. The note with it: Table 3, class symbols; for MIC: Escherichia coli, read-out: Antibacterial Activity (MIC) E. coli. As for the experimental part: as §1
Data set [6] concerns Staphylococcus aureus. Briefly: Antibacterial activity (MIC) against Staphylococcus aureus as Gram-positive bacterium. Type of data set: cell-based. The note with it: for MIC: Table 1, bacteriostatic, read-out: Staphylococcus aureus bacteriostatic action (MIC).

As to `O=C(O)c1cnc2ccc3cc4ccccc4nc3c2c1O` [Compound F-631], the LD50 in data set [1] (sc) is > 3000 mg/kg; in data set [2] (iv) it was 230 mg/kg; in data set [2] (po), > 5000 mg/kg. Further, the MBC amounted to 1.25 µg/mL (≈ 4.31 µM) in data set [3] and 1.25 µg/mL (≈ 4.31 µM) in data set [6] (Table 1, bacteriocidal, read-out: Staphylococcus aureus bacteriocidal action). Besides, the MIC in data set [3] was 1.25 µg/mL (≈ 4.31 µM); in data set [4] it was 0.09 to 1.25 µg/mL (≈ 0.31 to 4.31 µM); in data set [5], 0.09 to 1.25 µg/mL (≈ 0.31 to 4.31 µM); in data set [6], 1.25 µg/mL (≈ 4.31 µM).
For `C=Cc1c2ccccc2nc2c1ccc1ncc(C(=O)O)c(O)c12` [Compound F-690, Pyrido[2,3-c]-acridine-1-hydroxy-7-vinyl-2-carboxylic acid], the MIC in data set [4] and in data set [5] was 1.25 to 2.5 µg/mL (≈ 3.95 to 7.9 µM) throughout.
As to `C=CCc1c2ccccc2nc2c1ccc1ncc(C(=O)O)c(O)c12` [Compound F-694, Pyrido[2,3-c]-acridine-1-hydroxy-7-allyl-2-carboxylic acid], the MIC lay in the range of 1.25 to 2.5 µg/mL (≈ 3.78 to 7.57 µM) in data set [4] and 0.09 to 1.25 µg/mL (≈ 0.272 to 3.78 µM) in data set [5].
`O=C(O)c1cnc2ccc3c(-c4ccccc4Br)c4ccccc4nc3c2c1O` [Compound F-777, Pyrido[2,3-c]-acridine-1-hydroxy-7-o-bromophenyl-2-carboxylic acid]: the MIC in data set [4] and in data set [5] was 0.09 to 1.25 µg/mL (≈ 0.202 to 2.81 µM) in each case.
For the molecule `O=C(O)c1cnc2ccc3c(-c4ccc(I)cc4)c4ccccc4nc3c2c1O` [Compound F-789, Pyrido[2,3-c]-acridine-1-hydroxy-7-p-iodophenyl-2-carboxylic acid], the MIC in data set [4] and in data set [5] was 0.09 to 1.25 µg/mL (≈ 0.183 to 2.54 µM) each time.
`O=C(O)c1cnc2c(Br)cc3cc4ccccc4nc3c2c1O` [Compound F-840, Pyrido[2,3-c]-acridine-1-hydroxy-5-bromo-2-carboxylic acid]: the MIC in data set [5] was in the range of 0.09 to 1.25 µg/mL (≈ 0.244 to 3.39 µM).
The same measure, in the same setting: next, `O=C(O)c1cnc2ccc3c(Br)c4ccccc4nc3c2c1O` [Compound F-841, Pyrido[2,3-c]-acridine-1-hydroxy-7-bromo-2-carboxylic acid]: 0.09 to 1.25 µg/mL (≈ 0.244 to 3.39 µM).
Take `O=C(O)c1cnc2c(I)cc3cc4ccccc4nc3c2c1O` [Compound F-844, Pyrido[2,3-c]-acridine-1-hydroxy-5-iodo-2-carboxylic acid]: the MIC in data set [4] and in data set [5] was 0.09 to 1.25 µg/mL (≈ 0.216 to 3 µM) throughout.
For the molecule `O=C(O)c1cnc2ccc3c(I)c4ccccc4nc3c2c1O` [Compound F-845, Pyrido[2,3-c]-acridine-1-hydroxy-7-iodo-2-carboxylic acid], the MIC in data set [4] and in data set [5] was 0.09 to 1.25 µg/mL (≈ 0.216 to 3 µM) each time.
Regarding `Nc1c2ccccc2nc2c1ccc1ncc(C(=O)O)c(O)c12` [Compound F-849, Pyrido[2,3-c]-acridine-1-hydroxy-7-amino-2-carboxylic acid], the MIC in data set [4] and in data set [5] was 1.25 to 2.5 µg/mL (≈ 4.09 to 8.19 µM) throughout.
`CNc1c2ccccc2nc2c1ccc1ncc(C(=O)O)c(O)c12` [Compound F-853, Pyrido[2,3-c]-acridine-1-hydroxy-7-methylamino-2-carboxylic acid]: the minimal inhibitory concentration (MIC) in data set [4] and in data set [5] was 0.09 to 1.25 µg/mL (≈ 0.282 to 3.91 µM) each time.
As for `CCNc1cc2cc3ccccc3nc2c2c(O)c(C(=O)O)cnc12` [Compound F-856, Pyrido[2,3-c]-acridine-1-hydroxy-5-ethylamino-2-carboxylic acid], the MIC in data set [4] and in data set [5] was 0.09 to 1.25 µg/mL (≈ 0.27 to 3.75 µM) each time.
For the molecule `CCNc1ccc2nc3c(ccc4ncc(C(=O)O)c(O)c43)cc2c1` [Compound F-858, Pyrido[2,3-c]-acridine-1-hydroxy-9-ethylamino-2-carboxylic acid], the MIC in data set [4] and in data set [5] was 0.09 to 1.25 µg/mL (≈ 0.27 to 3.75 µM) throughout.
As for `CN(C)c1c2ccccc2nc2c1ccc1ncc(C(=O)O)c(O)c12` [Compound F-869, Pyrido[2,3-c]-acridine-1-hydroxy-7-dimethylamino-2-carboxylic acid], the MIC in data set [4] and in data set [5] was 0.09 to 1.25 µg/mL (≈ 0.27 to 3.75 µM) each time.
For `CSc1c2ccccc2nc2c1ccc1ncc(C(=O)O)c(O)c12` [Compound F-877, Pyrido[2,3-c]-acridine-1-hydroxy-7-methylmercapto-2-carboxylic acid], the MIC in data set [4] and in data set [5] was 0.09 to 1.25 µg/mL (≈ 0.268 to 3.72 µM) each time.
For `CS(=O)(=O)c1c2ccccc2nc2c1ccc1ncc(C(=O)O)c(O)c12` [Compound F-889, Pyrido[2,3-c]-acridine-1-hydroxy-7-methylsulfonyl-2-carboxylic acid], the MIC in data set [4] and in data set [5] was 0.09 to 1.25 µg/mL (≈ 0.244 to 3.39 µM) in each case.
As to `CS(=O)(=O)c1ccc2nc3c(ccc4ncc(C(=O)O)c(O)c43)cc2c1` [Compound F-890, Pyrido[2,3-c]-acridine-1-hydroxy-9-methylsulfonyl-2-carboxylic acid], the MIC in data set [4] and in data set [5] was 0.09 to 1.25 µg/mL (≈ 0.244 to 3.39 µM) throughout.
Turning to `O=C(O)c1cnc2ccc3cc4ccc([N+](=O)[O-])cc4nc3c2c1O` [Compound F-892, Pyrido[2,3-c]-acridine-1-hydroxy-10-nitro-2-carboxylic acid], the MIC in data set [4] and in data set [5] was 0.09 to 1.25 µg/mL (≈ 0.268 to 3.73 µM) each time.
On to `O=C(O)c1cnc2c(CO)cc3cc4ccccc4nc3c2c1O` [Compound F-893, Pyrido[2,3-c]-acridine-1-hydroxy-5-hydroxymethyl-2-carboxylic acid], for which the MIC lay in the range of 1.25 to 2.5 µg/mL (≈ 3.9 to 7.81 µM) in data set [4] and 0.09 to 1.25 µg/mL (≈ 0.281 to 3.9 µM) in data set [5].
For `O=C(O)c1cnc2ccc3cc4cc(CO)ccc4nc3c2c1O` [Compound F-895, Pyrido[2,3-c]-acridine-1-hydroxy-9-hydroxymethyl-2-carboxylic acid] the same measures were 1.25 to 2.5 µg/mL (≈ 3.9 to 7.81 µM) and 0.09 to 1.25 µg/mL (≈ 0.281 to 3.9 µM).
In the case of `NCc1cc2cc3ccccc3nc2c2c(O)c(C(=O)O)cnc12` [Compound F-901, Pyrido[2,3-c]-acridine-1-hydroxy-5-aminomethyl-2-carboxylic acid], the MIC in data set [4] and in data set [5] was 1.25 to 2.5 µg/mL (≈ 3.91 to 7.83 µM) each time.
With `O=C(O)c1cnc2c(N(CO)CO)cc3cc4ccccc4nc3c2c1O` [Compound F-913, Pyrido[2,3-c]-acridine-1-hydroxy-5-di-(hydroxymethyl)amino-2-carboxylic acid], the MIC in data set [4] and in data set [5] was 0.09 to 1.25 µg/mL (≈ 0.246 to 3.42 µM) throughout.
On to `O=C(O)c1cnc2ccc3c(N(CO)CO)c4ccccc4nc3c2c1O` [Compound F-914, Pyrido[2,3-c]-acridine-1-hydroxy-7-di-(hydroxymethyl)amino-2-carboxylic acid], for which the MIC in data set [4] and in data set [5] was 0.09 to 1.25 µg/mL (≈ 0.246 to 3.42 µM) throughout.
On to `O=C(O)c1cnc2ccc3cc4cc(N(CO)CO)ccc4nc3c2c1O` [Compound F-915, Pyrido[2,3-c]-acridine-1-hydroxy-9-di-(hydroxymethyl)amino-2-carboxylic acid], for which the MIC in data set [4] and in data set [5] was 0.09 to 1.25 µg/mL (≈ 0.246 to 3.42 µM) each time.
Take `O=C(O)c1cnc2ccc3cc4ccc(N(CO)CO)cc4nc3c2c1O` [Compound F-916, Pyrido[2,3-c]-acridine-1-hydroxy-10-di-(hydroxymethyl)amino-2-carboxylic acid]: the MIC in data set [4] and in data set [5] was 0.09 to 1.25 µg/mL (≈ 0.246 to 3.42 µM) each time.
Turning to `CC(=O)OCCNc1cc2cc3ccccc3nc2c2c(O)c(C(=O)O)cnc12` [Compound F-925, Pyrido[2,3-c] -acridine-1-hydroxy-5-acetoxyethylamino-2-carboxylic acid], in data set [4], the “Antibacterial Activity (MIC) Staph. aureus” value is on record as “A1 (antibacterial activity of 0.09 to 1.25 mcg/ml.)”. The “Antibacterial Activity (MIC) E. coli” value in data set [5] is recorded as “A1 (antibacterial activity of 0.09 to 1.25 mcg/ml.)”.
As to `CC(=O)OCCNc1c2ccccc2nc2c1ccc1ncc(C(=O)O)c(O)c12` [Compound F-926, Pyrido[2,3-c]-acridine-1-hydrox-7-acetoxyethylamino-2-carboxylic acid], the “Antibacterial Activity (MIC) Staph. aureus” value in data set [4] is “A1 (antibacterial activity of 0.09 to 1.25 mcg/ml.)”. The “Antibacterial Activity (MIC) E. coli” value in data set [5] was “A1 (antibacterial activity of 0.09 to 1.25 mcg/ml.)”.
As to `CC(=O)OCCNc1ccc2nc3c(ccc4ncc(C(=O)O)c(O)c43)cc2c1` [Compound F-927, Pyrido[2,3-c]-acridine-1-hydroxy-9-acetoxyethylamino-2-carboxylic acid], the “Antibacterial Activity (MIC) Staph. aureus” value in data set [4] is given as “A1 (antibacterial activity of 0.09 to 1.25 mcg/ml.)”. Further, in data set [5], the “Antibacterial Activity (MIC) E. coli” value was “A1 (antibacterial activity of 0.09 to 1.25 mcg/ml.)”.
For the molecule `O=C(O)c1cnc2c(O)cc3cc4ccccc4nc3c2c1O` [Compound F-929, Pyrido[2,3-c]-1,5-dihydroxy-2-carboxylic acid], the MIC in data set [4] and in data set [5] was 0.09 to 1.25 µg/mL (≈ 0.294 to 4.08 µM) each time.
`O=C(O)c1cnc2ccc3c(O)c4ccccc4nc3c2c1O` [Compound F-930, Pyrido[2,3-c]-1,7-dihydroxy-2-carboxylic acid]: the MIC in data set [4] and in data set [5] was 0.09 to 1.25 µg/mL (≈ 0.294 to 4.08 µM) throughout.
For the molecule `O=C(O)c1cnc2ccc3cc4cc(O)ccc4nc3c2c1O` [Compound F-931, Pyrido[2,3-c]-1,9-dihydroxy-2-carboxylic acid], the MIC in data set [4] and in data set [5] was 0.09 to 1.25 µg/mL (≈ 0.294 to 4.08 µM) each time.
On to `O=C(O)c1cnc2ccc3cc4cccc(O)c4nc3c2c1O` [Compound F-932, Pyrido[2,3-c]-1,11-dihydroxy-2-carboxylic acid], for which the MIC in data set [4] and in data set [5] was 0.09 to 1.25 µg/mL (≈ 0.294 to 4.08 µM) in each case.
Turning to `O=C(O)c1ccc2nc3c(ccc4ncc(C(=O)O)c(O)c43)cc2c1` [Compound F-935, Pyrido[2,3-c]-1-hydroxy-2,9-dicarboxylic acid], the MIC in data set [4] and in data set [5] was 1.25 to 2.5 µg/mL (≈ 3.74 to 7.48 µM) each time.
Turning to `CCn1cc(C(=O)O)c(=O)c2ccc(C)nc21` [Nalidixic acid, reference compound], the LD50 in data set [1] (iv) was 176 mg/kg; in data set [1] (po), 3300 mg/kg; in data set [1] (sc), 500 mg/kg. For the same molecule, in data set [3], the MBC came out at 6.25 µg/mL (≈ 26.9 µM). The values for the MIC in data set [3] and in data set [6] were 6.25 µg/mL (≈ 26.9 µM) and 125 µg/mL (≈ 538 µM), respectively.
